Laboratory results as given in BindingDB's records for doi:10.1016/S0960-894X(00)80673-3 (1993).

Target: HIV-2 protease (Human immunodeficiency virus 2)
Test: Tested for the inhibition of HIV-2 protease

## CCC(C)[C@H](NC(=O)[C@@H](C[C@H](O)[C@H](CC1CCCCC1)NC(=O)[C@H](CC(N)=O)NC(=O)c1ccc2ccccc2n1)C(C)C)C(=O)NCc1ccccn1 (stereo partly drawn) [(S)-N*1*-((1S,2S,4S)-1-Cyclohexylmethyl-2-hydroxy-5-methyl-4-{(S)-2-methyl-1-[(pyridin-2-ylmethyl)-carbamoyl]-butylcarbamoyl}-hexyl)-2-[(quinoline-2-carbonyl)-amino]-succinamide]
  Ki: 65 nM
